Assay results taken from patent US10376535B2, “Therapy for malignant disease” (UNIVERSITY OF ROCHESTER, priority 2015, dated 2019).

Legend:
PD-L1 [1] = experiment: PD-L1 expression after MeTC7 treatment, melanoma cells; assay type: cell-based
PD-L1 [2] = experiment: PD-L1 immunofluorescence after MeTC7 treatment, ID-8 murine ovarian cancer cells; assay type: cell-based; settings: MeTC7 125 nM, 4-6 hours
Experimental: (§1) Co-localization of VDR and PD-L1 was performed following the method in the Examples above. To determine the expression level of PD-L1 after MeTC7 treatment (125 nM), 10000 cells/well of SKOV-3, OVCAR-8 human ovarian carcinoma cells, IGROV-1 human ovarian carcinoma cells, and ID-8 murine ovarian cancer cells were seeded in an 8 well slide chamber (Nunc) and allowed to adhere overnight in FBS supplemented DMEM media. After 18 hours, the media was removed and the cells were treated with vehicle or MeTC7 supplemented DMEM serum free media for 4-6 hours. Cells maintained in DMEM medium were fixed with formalin solution for 15 mins, washed with PBST solution and blocked with Donkey serum 5% in PBST for 30 minutes. Cells were carefully washed and stained with PD-L1 primary antibody overnight in PBST. The cells were washed and stained with corresponding fluorescence linked secondary antibody for 1 hour. Cells were washed repeatedly with PBST (200 μL) five times. Casing on the chambers were removed and DAPI was applied in a mounting medium and images were recorded using an epi or confocal microscopy.

PD-L1 [3] = experiment: PD-L1 immunofluorescence after MeTC7 treatment, DAOY medulloblastoma cells; assay type: cell-based, human; settings: MeTC7 125 nM, confocal microscopy
Experimental: FIG. 12 is a fluorescent micrograph depicting the effects of MeTC7 (125 nM) treatment on immune checkpoint PD-L1 expression in DAOY (human) medulloblastoma cells. Treated/naïve DAOY cells were analyzed by spinning disk confocal microscopy after staining with PD-L1 primary and suitable secondary antibodies.
as §1, with “Cells were washed repeatedly with PBST (200 μL) five times.” left out

PD-L1 [4] = experiment: PD-L1 immunofluorescence after MeTC7 treatment, human ovarian carcinoma cells (SKOV-3, OVCAR-8, IGROV-1); assay type: cell-based; settings: MeTC7 125 nM, 4-6 hours
Experimental: as §1

SKOV-3 cells = experiment: Tumor size in SKOV-3 xenograft, cisplatin-resistant murine model of ovarian cancer; assay type: in vivo; settings: SKOV-3 xenograft nude mice; IP; oligos 7 mg/kg, cisplatin 10 mg/kg once a week; measured every 3 days
Experimental: Four to six week-old immunodeficient nude mice were maintained at a temperature of ˜22° C. and a relative humidity of ˜55%, with a 12 hour light/dark cycle. The mice used were NU/NU; strain code 088/homozygous, obtained from Charles River Laboratories, Wilmington, Mass. The inoculation of the mice began with culturing SKOV-3 cells to 80% confluence, washing the SKOV-3 cells in PBS twice, and harvesting the cells by trypsination. The harvested cells were then pooled in complete medium, washed in PBS twice, and 2×10^6 cells/inoculate were suspended in 0.1 ml of matrigel. This cell suspension was used to inoculate the mice subcutaneously in the flank of each mouse. Mice with developing tumors after two weeks were randomly assigned to experimental groups. Mice were treated intraperitoneally with either vehicle control (control group; 7 animals) or Antisense-1 (7 mg/kg bwt) or scrambled PTO (7 mg/kg bwt) for 7 days. In another arm mice were treated with cisplatin (10 mg/kg, once a week), or scrambled PTO (7 mg/kg, 5 times/week)+ cisplatin (10 mg/kg, IP, once a week) or Antisense-1 (7 mg/kg, IP, once a week)+ Cisplatin (10 mg/kg, IP, once a week). Mice were weighed and tumor size was measured using a digital caliper every 3 days.

PD-1 = experiment: RT-PCR of PD-1 in donor PBMCs incubated with recombinant HE4; assay type: cell-based, human; settings: HE4 5.4 nM, donor PMBCs, within 6 hours
Experimental: Ficoll-Paque density gradient centrifugation was used to isolate PBMC from heparinized venous blood. Unfractionated PBMC were suspended in serum free RPMI1640 medium. Then the cells were incubated with recombinant HE4 (5.4 nM) or vehicle for 6 hours. TRIzol reagent was used to isolate the total RNA, and the first strand cDNA was made by SuperScript III reverse transcriptase. RT-PCR for the cDNA was done with PD-1 or GAPDH (internal control) gene specific primers. The primer sequences used for PD-1 are F-[…] (SEQ ID NO:4); R-[…] SEQ ID NO:5). The primer sequences used for internal control (GAPDH) are F-AATCCCATCACCATCTTCC SEQ ID NO:6); R-gTCCTTCCACgATACCAAAg SEQ ID NO:7).

## CC(C)CCC[C@@H](C)C1CC[C@H]2C34C=CC5(C[C@@H](OC(=O)CBr)CC[C@]5(C)[C@H]3CC[C@]12C)n1c(=O)n(C)c(=O)n14 (stereo partly drawn) [MeTC7]
PD-L1 [1]
  PD-L1 expression: a similar effect was not found
PD-L1 [2]
  PD-L1 expression: down regulate
PD-L1 [3]
  PD-L1 expression: reduced PD-L1 expression
PD-L1 [4]
  PD-L1 expression: down regulate

## N.N.[Cl][Pt][Cl] [cisplatin]
SKOV-3 cells
  percent change in tumor size: an increase in tumor size at least initially

B1: recombinant HE4: exogenous recombinant human epididymis protein 4 added to PBMCs (protein, UniProt Q14508 31-124, looked up)
WAP four-disulfide core …: EKTGVCPELQADQNCTQECVSDSECADNLKCCSAGCATFCSLPNDKEGSCPQVNINFPQLGLCRDQCQVDSQCPGQMKCCRNGCGKVSCVTPNF
PD-1
  increase in PD-1 expression (PD-1/GAPDH ratio): 77.7%
